According to patent US10060933B2, “Methods for diagnosis and treatment of amyotrophic lateral sclerosis based on an increased level of interaction between TDP-43 polypeptide and NF-KB P65 polypeptide” (UNIVERSITE LAVAL, priority 2011, dated 2018):
“Also recorded” adds a separate entry of the source.

What was measured:
[1] = tested on: NF-κB (phospho-p65^Ser536); assay: Western blot of phospho-p65^Ser536 in challenged neuronal cells; type: cell-based, mouse; settings: glutamate and conditioned media challenged neuronal cells; WA
Source text: […] is known to modulate p53-p38MAPK dependent apoptosis in neurons, when treated with DNA damage inducing chemicals like camptothecin^34, glutamate excitotoxicity^35 or general bystander mediated killing of neurons by microglia^14. To assess the potential contribution of NF-κB to the death of TDP-43 overexpressing neurons exposed to toxic injury, we prepared cultures of primary cortical neurons and microglia from transgenic mice overexpressing TDP-43^wt or TDP-43 mutants. […] The LDH cytotoxicity was determined 24 hrs later (FIG. 14A). […] We then incubated cortical neurons with the conditioned media from primary microglial culture, which were challenged with LPS at a concentration of 50 ng/ml of media. […] As WA might exert multiple pharmacological actions, we tested a more specific molecular approach for inhibiting NF-κB. Since, activation of NF-κB requires its dissociation from the inhibitory molecule, IκB, we expressed a stable mutant super-repressive form of IκB-α (Ser 32/Ser36-to-alanine mutant; IκB^SR) and evaluated its effects on neuronal death. Cultured cortical neurons from TDP-43 transgenic and non-transgenic mice were transfected with a plasmid construct, expressing IκB^SR, and exposed to either 10 μM glutamate for 30 min or incubated in conditioned media from LPS-stimulated microglia of same genotype. […]

[2] = tested on: GFAP-luc/TDP-43^Wt mice; assay: Accelerating rotarod in TDP-43^Wt transgenic mice; type: in vivo, mouse
Description: (§1) To study the in vivo effect of NF-κB inhibition on disease progression, we injected TDP-43^wt; GFAP-luc double transgenic mice with 3 mg/kg body weight of WA twice a week for 10-weeks starting at 30-weeks. […] We used TDP-43^wt; GFAP-luc double transgenic mice because the reporter luciferase (luc) allowed the longitudinal and non-invasive biophotonic imaging with CCD camera of the GFAP promoter activity which is a target of activated NF-κB. To analyse the spatial and temporal dynamics of astrocytes activation/GFAP induction in TDP-43 mouse model, we performed series of live imaging experiments. […] The downregulation of GFAP promoter activity was further confirmed in these mice using GFAP immunofluorescence of spinal cord sections of TDP-43^Wt mice (both drug-treated and untreated) (FIG. 8F). […] Down-regulation of GFAP along with reduction in active p65 levels in withaferin treated mice prompted us to analyse behavioural changes in these mice. […] The withaferin treated mice also had 40% reduction in the number of partially denervated neuromuscular junction (NMJ) (FIGS. 8E&G).
(§2) Age matched control non-transgenic animals (n=10) and in TDP-43^Wt (n=10) littermates were injected twice a week with 0.9% saline intra-peritoneally. All the behavioral and imaging experiments were conducted in a double blind manner as such the experimenter had no knowledge of the drug treatment or the genotype of animals.
Accelerating rotarod was performed on mice at 4 rpm speed with 0.25 rpm/sec acceleration as described elsewhere^30. Mice were subjected to three trials per session and every two weeks.

[3] = tested on: GFAP promoter activity; assay: In vivo bioluminescence imaging of GFAP-luc in spinal cord; parameters: species or system mouse; settings: for GFAP promoter activity / GFAP-luc expression (bioluminescence) in spinal cord: GFAP-luc/TDP-43^Wt mice, 3 mg/kg i.p. twice a week for 10 weeks from 30 weeks, 36 and 40 weeks, vs untreated, 3 mg/kg
Description: as §1, §2
As previously described^31, 32, the images were gathered using IVIS® 200 Imaging System (CaliperLSXenogen, Alameda, Calif., USA). Twenty-five minutes prior to imaging session, the mice received intraperitoneal (i.p.) injection of the luciferase substrate D-luciferine (150 mg/kg—for mice between 20 and 25 g, […] of a solution of 20 mg/ml of D-luciferine dissolved in 0.9% saline was injected) (CaliperLS-Xenogen).

[4] = withaferin treated TDP-43 transgenic mice after cessation of treatment

With `CC1=C(CO)C(=O)O[C@@H]([C@@H](C)[C@H]2CC[C@H]3[C@@H]4C[C@H]5O[C@]56[C@@H](O)C=CC(=O)[C@]6(C)[C@H]4CC[C@]23C)C1` [Withaferin A] the “levels of phospho-p65^Ser536 (inhibition of NF-κB)” value [1] was “reduced levels”, the rotarod performance ([2]; GFAP-luc/TDP-43^Wt mice, 3 mg/kg i.p. twice a week for 10 weeks, vs untreated, 3 mg/kg) was “significantly better motor performance; also recorded: much better rotarod performance” and the “ameliorated motor impairment compared to untreated mice” value ([2]; TDP-43^WT or TDP-43^G348C transgenic mice) was “at least 4%”. For the same compound, the “rotarod performance after cessation of the drug treatment” value [2, 4] was “decrease in rotarod performance”, the “GFAP promoter activity / GFAP-luc expression (bioluminescence) in spinal cord” value [3] was “Significant reduction” and the “GFAP promoter activity / GFAP-luc expression (bioluminescence) in spinal cord” value ([3]; listed as WA) was “progressive reduction in GFAP-luc expression”. The “GFAP luciferase activity after cessation of the drug treatment” value [3, 4] was “increase in GFAP luciferase activity”.
